Assay results reported in US20260132420A1, “VIRAL VECTORS FOR NUCLEAR REPROGRAMMING” (Mayor Foundation for Medical Education and Research, priority 2016, published 2026).

Assays:
BJ cells [1] = test: Reprogramming of BJ human fibroblasts into iPSC-like clones; assay type: cell-based; conditions: SB431542 5 μM, PD0325901 0.2 μM, Thiazovivin 0.5 μM together, day 7 to 14
Method: Using a reprogramming protocol described elsewhere (Driscoll et al., Stem Cell Research and Therapy 6:48 (2015)), an iPSC-like clone with MV(OCT4)P-ΔH(KLF4) (GFP)H or MV(T) vector in combination with 2 LV encoding SOX2 and cMYC was obtained. The clone obtained with vector MV(T) was analyzed for pluripotency markers (FIGS. 2B and C), for its ability to spontaneously differentiate into the three germ lineages after EB formation (not shown), and its ability to differentiate into contracting cardiomyocytes through guided cardiac differentiation (FIG. 2D).
To increase transduction efficiency the spinoculation technique was established. To reduce MV-induced toxicity, the MOI of transduction was decreased. BJ cells, a neonatal foreskin human cells were purchased from the American Type Culture Collection (ATCC #CRL 2522), and were transduced with the 4F vector at a MOI of 1 instead of 6 as described elsewhere (Driscoll et al., Stem Cell Research and Therapy 6:48 (2015)). In order to induce TLR3 activation during MV reprogramming, the transduction was performed in presence of polyI:C (a TLR3 activator). Transduced cells were subjected or not to spinoculation at 1000 rpm for 1 hour at room temperature. The culture supernatants were replaced with BJ media every three days. […] The cells were monitored until reprogrammed cells form small colonies with iPSC morphology (one to two weeks after vector transduction). […] The most efficient MOI for each vector was determined.
The ability of the MV(OCT4) mir375 to reprogram BJ cells in presence of 3LV expressing SOX2, KLF4, and cMYC was analyzed, and its efficiency was compared to MV(OCT4) and 4LV. […] Using light and fluorescence microscopy, early phases of iPSC-like clone development with MV(OCT4)miR375 were observed (15 days post transduction, FIG. 6B). […] The expression of the N mRNA in the early passages of four iPSC-like clones derived from MV(OCT4)miR375 was analyzed. […] RNA was collected at each passage and RT-PCR for N and P mRNA was analyzed. […]
The ability of the 4F* to reprogram BJ cells was analyzed. […]

BJ cells [2] = test: Transduction efficiency by GFP expression (microscopy, flow cytometry); assay type: cell-based, human; conditions: added at transduction with MV vector, 48 hours
Description: To increase transduction efficiency the spinoculation technique was established. To reduce MV-induced toxicity, the MOI of transduction was decreased. BJ cells, a neonatal foreskin human cells were purchased from the American Type Culture Collection (ATCC #CRL 2522), and were transduced with the 4F vector at a MOI of 1 instead of 6 as described elsewhere (Driscoll et al., Stem Cell Research and Therapy 6:48 (2015)). In order to induce TLR3 activation during MV reprogramming, the transduction was performed in presence of polyI:C (a TLR3 activator). Transduced cells were subjected or not to spinoculation at 1000 rpm for 1 hour at room temperature. The culture supernatants were replaced with BJ media every three days. After 9 days, optimized serum-free/feeder-free iPSC medium was added and replaced daily. The cells were monitored until reprogrammed cells form small colonies with iPSC morphology (one to two weeks after vector transduction). Pictures were taken at different stages. iPS-like clones were picked after three to four weeks, and plated at 1 colony/well in Matrigel-coated wells for further expansion. […] The most efficient MOI for each vector was determined.
Transduction efficacy of the vectors was tested at different MOI using light microscopy and flow cytometry and testing for GFP expression. BJ cells were transduced with 4F* at a MOI of 0.5 or 0.25. […]

Compound | effect of added small molecules on reprogramming efficiency of MV four factor vectors (BJ cells [1]) | effect on expression of measles proteins (GFP) (BJ cells [2])
O=C(NOC[C@H](O)CO)c1ccc(F)c(F)c1Nc1ccc(I)cc1F [PD0325901] | improved efficiency | 
NC(=O)c1ccc(-c2nc(-c3ccc4c(c3)OCO4)c(-c3ccccn3)[nH]2)cc1 [SB431542] | improved efficiency | 
O=C(NCc1ccccc1)c1csc(Nc2ccncn2)n1 [Thiazovivin] | improved efficiency | 
polyI:C |  | does not affect the expression of measles proteins
